“And” between values parts separate entries of the source, which are not always exact repeats. Identical values can stand only once.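 Five concentrations, 48 hours, 96-well plates. GI50: concentration for 50% inhibition of growth. TGI marks complete inhibition of growth.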
Legend:
Test in all cases: inhibition of tumour cell growth, NCI panel, 48 h
HS 578T breast = test system: HS 578T breast
SNB-75 CNS = test system: SNB-75 CNS
UACC-257 melanoma = test system: UACC-257 melanoma
NCI-H460 lung = test system: NCI-H460 lung
CAKI-1 renal = test system: CAKI-1 renal
HOP-92 NSCLC = test system: HOP-92 NSCLC
U251 CNS = test system: U251 CNS
SNB-19 CNS = test system: SNB-19 CNS
SR leukemia = test system: SR leukemia
LOX IMVI melanoma = test system: LOX IMVI melanoma
KM12 colon = test system: KM12 colon
A498 renal = test system: A498 renal
SK-MEL-5 melanoma = test system: SK-MEL-5 melanoma
HCT-116 colon = test system: HCT-116 colon
UO-31 renal = test system: UO-31 renal
MDA-MB-231 breast = test system: MDA-MB-231 breast
RXF 393 renal = test system: RXF 393 renal
BT-549 breast = test system: BT-549 breast

SMILES	TGI (HS 578T breast) [µM]	TGI (SNB-75 CNS)	TGI (UACC-257 melanoma) [µM]	TGI (NCI-H460 lung) [µM]	TGI (CAKI-1 renal) [µM]	TGI (HOP-92 NSCLC)	TGI (U251 CNS)	TGI (SNB-19 CNS) [µM]	TGI (SR leukemia) [µM]	TGI (LOX IMVI melanoma)	TGI (KM12 colon)	TGI (A498 renal)	TGI (SK-MEL-5 melanoma)	TGI (HCT-116 colon) [µM]	TGI (UO-31 renal)	TGI (MDA-MB-231 breast)	TGI (RXF 393 renal) [µM]	TGI (BT-549 breast) [µM]	GI50 (UACC-257 melanoma) [µM]	GI50 (LOX IMVI melanoma) [µM]
CC(C)=C=CC(C)(C)NS(=O)(=O)NC(C)(C)C=C=C(C)C	> 100	> 100 µM	> 100	> 100	> 100	> 100 µM	> 100 µM	> 100	> 100	> 100 µM	> 100 µM	> 100 µM	> 100 µM	> 100						
Cc1ccc(S(=O)(=O)NC(=O)NCC(=O)O)cc1	> 100	> 100 µM	> 100	> 100		> 100 µM	> 100 µM	> 100		> 100 µM	> 100 µM		> 100 µM	> 100	> 100 µM	> 100 µM	> 100	> 100		
CCCC(=O)Oc1cc(OC(=O)CCC)c2c(C)cc(=O)oc2c1	> 100	> 100 µM	> 100			> 100 µM	> 100 µM	> 100	76.9	> 100 µM	> 100 µM	> 100 µM	> 100 µM	> 100	> 100 µM	> 100 µM				
COc1cc(N(CCC#N)CCC#N)ccc1/C(N=Nc1cccc(C)c1)=N\NC(=O)c1ccc(C)cc1	> 100		> 100	> 100	> 100	> 100 µM	> 100 µM	> 100		> 100 µM	> 100 µM	44.1 µM	> 100 µM	> 100	> 100 µM	> 100 µM	> 100	> 100		
COC1=CC(=O)C2C(C1=O)[C@@H]1c3ccccc3OC[C@H]21 (stereo not given in full)		> 100 µM		> 100	> 100	> 100 µM	> 100 µM	> 100		> 100 µM	> 100 µM	> 100 µM	> 100 µM	> 100	> 100 µM		> 100			
CC(C)(C)OC(=O)CC(NC(=O)OC(C)(C)C)C(=O)Oc1ccc([N+](=O)[O-])cc1 (stereo not given)	> 100	> 100 µM	> 100	> 100	> 100	> 100 µM	> 100 µM	> 100		> 100 µM	> 100 µM	> 100 µM	> 100 µM	> 100	> 100 µM	> 100 µM	> 100	> 100		
NC1=CN(Cc2ccccc2)C2=N/C(=C\c3ccco3)C(=O)N12	> 100	> 100 µM	> 100	> 100	> 100	> 100 µM	> 100 µM	> 100		> 100 µM	> 100 µM	> 100 µM	> 100 µM	> 100	> 100 µM	> 100 µM	> 100	> 100		
COC(=O)c1ccccc1Nc1ccccc1C(=O)OC	72.2	> 100 µM	> 100	> 100	> 100	75.5 µM	> 100 µM	> 100		> 100 µM	> 100 µM	> 100 µM	> 100 µM	> 100		> 100 µM	> 100	> 100		
N#CCCN(CCC#N)c1ccc(/C=C2\N=C(c3ccccc3)N(c3ccccc3)C2=O)cc1	87.6		> 100	> 100		> 100 µM	> 100 µM	> 100		> 100 µM	> 100 µM	> 100 µM	> 100 µM	> 100	> 100 µM	> 100 µM	> 100	> 100		
CC(=O)Oc1ccc2c3c1[C@@H]1O[C@@H]1c1cccc(c1-3)[C@@H]1O[C@H]21	5.98	3.07 µM	> 100		3.07			23.1		2.02 µM	4.47 µM	6.57 µM	3.56 µM	2.87	2.91 µM	3.64 µM	2.73	3.98	2.75	0.65
CSc1nc(Cl)c2c(n1)Sc1nc3ccccc3n1N=C2	62.1	71.5 µM	> 100	> 100	72.5	45.2 µM	> 100 µM	> 100		33.5 µM	> 100 µM	> 100 µM	72.6 µM	> 100	35.9 µM	50.9 µM	43.4	43.3		
CC1(C)O[C@@H](CP(c2ccc3ccccc3c2)c2ccc3ccccc3c2)[C@H](CP(c2ccc3ccccc3c2)c2ccc3ccccc3c2)O1		> 100 µM	> 100	> 100	> 100		> 100 µM	> 100	> 100	> 100 µM	> 100 µM		> 100 µM	> 100	> 100 µM	> 100 µM	> 100	> 100		
C=[N+](CNC(=O)CNC(=O)C(Cc1ccccc1)NC(=O)OC(C)(C)C)C(=O)CNC(=O)C(Cc1ccccc1)NC(=O)OC(C)(C)C (stereo not given)	> 100	> 100 µM	> 100	> 100	> 100	> 100 µM		> 100	> 100	> 100 µM	> 100 µM	> 100 µM	> 100 µM	> 100	> 100 µM	> 100 µM	> 100			
OCC(O)C(O)C(C=NNc1ncnc2ccc(Br)cc12)=NNc1ncnc2ccc(Br)cc12 (stereo not given)	> 100	17.6 µM and > 100 µM	> 100			10.4 µM and > 100 µM	67.3 µM and > 100 µM	> 100		14.9 µM and > 100 µM	69 µM and > 100 µM	18 µM and 75.2 µM	2.68 µM and 4.28 µM	> 100	25.6 µM and > 100 µM	31.3 µM and > 100 µM	72.4			
